Biological target: T1, CFTR (Homo sapiens, UniProt P13569, DEL508-508)
T1 construct: Primary CF airway epithelial cells were obtained from the UNC Cystic Fibrosis Tissue Procurement and Cell Culture Core; host or cells: primary CF airway epithelial cells, differentiated at the air-liquid interface
Experiment: Equivalent current assay in primary CF airway epithelial cells (NAUC, combination with 1st site corrector FDL169 or VX-809)
Format: cell-based
Conditions: 37° C., 24 h

[1] = test compound 1 μM in combination with 1st site corrector FDL169 (3 μM)
[2] = test compound 3 μM in combination with 1st site corrector FDL169 (3 μM)
[3] = test compound 10 μM in combination with 1st site corrector FDL169 (3 μM)
[4] = test compound 3 μM in combination with 1st site corrector VX-809 (3 μM)
[5] = test compound 10 μM in combination with 1st site corrector VX-809 (3 μM)
[6] = test compound 1 μM in combination with 1st site corrector VX-809 (3 μM)

T1 sequence (P13569 with tags, fused parts or gaps DEL508-508): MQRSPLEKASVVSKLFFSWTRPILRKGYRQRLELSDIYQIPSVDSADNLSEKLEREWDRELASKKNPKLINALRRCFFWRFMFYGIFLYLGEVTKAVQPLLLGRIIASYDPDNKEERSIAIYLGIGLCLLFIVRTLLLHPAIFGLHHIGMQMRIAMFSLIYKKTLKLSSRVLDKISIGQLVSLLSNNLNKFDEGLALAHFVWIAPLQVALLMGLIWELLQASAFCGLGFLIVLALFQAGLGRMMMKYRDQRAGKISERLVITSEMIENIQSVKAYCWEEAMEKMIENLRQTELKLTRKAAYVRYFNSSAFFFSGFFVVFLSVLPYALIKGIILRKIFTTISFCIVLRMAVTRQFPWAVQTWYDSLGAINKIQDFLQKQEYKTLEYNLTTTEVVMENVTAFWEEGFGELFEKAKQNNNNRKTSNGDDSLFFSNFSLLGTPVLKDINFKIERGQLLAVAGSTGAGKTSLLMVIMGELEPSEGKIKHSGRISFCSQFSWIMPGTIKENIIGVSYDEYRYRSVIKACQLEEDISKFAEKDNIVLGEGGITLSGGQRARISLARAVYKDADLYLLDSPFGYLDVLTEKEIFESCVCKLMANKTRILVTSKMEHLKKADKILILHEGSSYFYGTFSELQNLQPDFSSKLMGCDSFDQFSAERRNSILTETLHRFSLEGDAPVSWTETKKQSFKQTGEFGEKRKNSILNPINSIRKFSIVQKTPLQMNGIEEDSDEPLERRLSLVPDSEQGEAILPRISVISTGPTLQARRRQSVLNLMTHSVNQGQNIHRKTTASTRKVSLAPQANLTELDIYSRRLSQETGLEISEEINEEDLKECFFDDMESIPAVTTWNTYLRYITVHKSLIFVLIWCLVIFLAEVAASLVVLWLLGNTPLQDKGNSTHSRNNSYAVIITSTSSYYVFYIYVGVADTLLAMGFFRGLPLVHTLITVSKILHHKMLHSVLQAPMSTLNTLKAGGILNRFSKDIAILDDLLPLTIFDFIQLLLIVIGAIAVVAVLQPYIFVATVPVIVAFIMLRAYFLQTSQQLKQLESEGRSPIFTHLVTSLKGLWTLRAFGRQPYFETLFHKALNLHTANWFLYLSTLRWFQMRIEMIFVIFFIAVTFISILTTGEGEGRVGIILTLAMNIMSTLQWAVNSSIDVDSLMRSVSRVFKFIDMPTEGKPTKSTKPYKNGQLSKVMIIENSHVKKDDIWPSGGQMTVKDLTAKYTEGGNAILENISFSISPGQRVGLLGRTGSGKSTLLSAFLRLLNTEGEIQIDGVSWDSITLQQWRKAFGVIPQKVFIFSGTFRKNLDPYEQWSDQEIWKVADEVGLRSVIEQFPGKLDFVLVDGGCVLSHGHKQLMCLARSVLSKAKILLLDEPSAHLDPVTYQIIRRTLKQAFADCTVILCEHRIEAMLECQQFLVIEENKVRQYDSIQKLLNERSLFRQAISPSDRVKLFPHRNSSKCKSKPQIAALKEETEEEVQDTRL

SMILES: CC(C)(C)CN(C(=O)[C@H]1[C@@H](C(=O)O)[C@]2(C(=O)Nc3c(Cl)cc(Cl)cc32)N2CC3(CC3)C[C@@H]12)c1cc(Cl)cc(Cl)c1 (single isomer, unassigned) [Example 275.7b]
- Nauc @ 1 μM [1]: +++ (NAUC “+++” refers to an observed NAUC>170% of positive control)
- Nauc @ 3 μM [2]: +++ (NAUC “+++” refers to an observed NAUC>170% of positive control)
- Nauc @ 10 μM [3]: ++ (NAUC “++” refers to an observed NAUC 170-140% of positive control)

SMILES: O=C(Nc1cc(Cl)c(OC(F)F)c(Cl)c1)C1C2CC3(CC3)CN2C2(C(=O)Nc3c(Cl)cc(Cl)cc32)C1C(=O)O (stereo not shown) [Example 12]
- Nauc @ 3 μM [4]: +++ (NAUC “+++” refers to an observed NAUC>170% of positive control)
- Nauc @ 10 μM [5]: +++ (NAUC “+++” refers to an observed NAUC>170% of positive control)

SMILES: O=C(O)[C@H]1[C@@H](C(=O)N(CC2CC2)c2cc(Cl)cc(Cl)c2)[C@H]2CC(F)(F)CN2[C@]12C(=O)N(C1CC1)c1c(Cl)cc(Cl)cc12 [Example 208, (1′R,2′S,3R,7a′R)-5,7-dichloro-1-cyclopropyl-1′-((cyclopropylmethyl)(3,5-dichlorophenyl)carbamoyl)-6′,6′-difluoro-2-oxo-1′,2′,5′,6′,7′,7a′-hexahydrospiro[indoline-3.3′-pyrrolizine]-2′-carboxylic acid]
- Nauc @ 1 μM [1]: ++ (NAUC “++” refers to an observed NAUC 170-140% of positive control)
- Nauc @ 3 μM [2]: ++ (NAUC “++” refers to an observed NAUC 170-140% of positive control)
- Nauc @ 10 μM [3]: + (NAUC “+” refers to an observed NAUC <140% of positive control)

SMILES: Cn1ccnc1NC(=O)[C@H]1[C@@H](C(=O)Nc2cc(Cl)cc(Cl)c2)[C@H]2CCCN2[C@]12C(=O)Nc1c(Cl)cc(Cl)cc12 (single isomer, unassigned) [Example 238, (1′R,2′S,7a′R)-5,7-dichloro-N1′-(3,5-dichlorophenyl)-N2′-(1-methyl-1H-imidazol-2-yl)-2-oxo-1′,2′,5′,6′,7′,7a′-hexahydrospiro[indoline-3,3′-pyrrolizine]-1′,2′-dicarboxamide]
- Nauc @ 1 μM [6]: + (NAUC “+” refers to an observed NAUC <140% of positive control)
- Nauc @ 3 μM [4]: + (NAUC “+” refers to an observed NAUC <140% of positive control)

SMILES: O=C(O)[C@H]1[C@@H](C(=O)N(c2cc(Cl)cc(Cl)c2)C2CCCC2)[C@H]2CC(F)(F)CN2[C@]12C(=O)Nc1c(Cl)cc(Cl)cc12 [Example 175]
- Nauc @ 1 μM [1]: +++ (NAUC “+++” refers to an observed NAUC>170% of positive control)
- Nauc @ 3 μM [2]: +++ (NAUC “+++” refers to an observed NAUC>170% of positive control)
- Nauc @ 10 μM [3]: +++ (NAUC “+++” refers to an observed NAUC>170% of positive control)

SMILES: O=C(Nc1cc(Cl)cc(Cl)c1)C1C2CC(F)(F)CN2C2(C(=O)Nc3c(Cl)cc(Cl)cc32)C1C(=O)NO (single isomer, unassigned) [Example 226a, 5,7-dichloro-N1′-(3,5-dichlorophenyl)-6′,6′-difluoro-N2′-hydroxy-2-oxo-1′,2′,5′,6′,7′,7a′-hexahydrospiro[indoline-3,3′-pyrrolizine]-1′,2′-dicarboxamide]
- Nauc @ 1 μM [6]: ++ (NAUC “++” refers to an observed NAUC 170-140% of positive control)
- Nauc @ 3 μM [4]: ++ (NAUC “++” refers to an observed NAUC 170-140% of positive control)
- Nauc @ 10 μM [5]: +++ (NAUC “+++” refers to an observed NAUC>170% of positive control)

SMILES: CN(C(=O)[C@H]1[C@H]2CC(F)(F)CN2C2(C(=O)Nc3c(Cl)cc(Cl)cc32)[C@H]1C(=O)O)c1cc(Cl)c(OC(F)F)c(Cl)c1 (stereo partly shown) [Example 290]
- Nauc @ 1 μM [6]: ++ (NAUC “++” refers to an observed NAUC 170-140% of positive control)
- Nauc @ 3 μM [4]: +++ (NAUC “+++” refers to an observed NAUC>170% of positive control)
- Nauc @ 10 μM [5]: +++ (NAUC “+++” refers to an observed NAUC>170% of positive control)

SMILES: O=C(Nc1cccc2c1CCCC2)[C@H]1[C@H]2CC(F)(F)CN2[C@]2(C(=O)Nc3c(Cl)cc(Cl)cc32)[C@H]1C(=O)O [Example 131]
- Nauc @ 1 μM [6]: +++ (NAUC “+++” refers to an observed NAUC>170% of positive control)
- Nauc @ 3 μM [4]: +++ (NAUC “+++” refers to an observed NAUC>170% of positive control)

SMILES: CN1C(=O)[C@]2(c3cc(Cl)cc(Cl)c31)[C@@H](C(=O)O)[C@@H](C(=O)N(CC(C)(C)C)c1cc(Cl)cc(Cl)c1)[C@H]1CC(F)(F)CN12 [Example 207]
- Nauc @ 1 μM [1]: ++ (NAUC “++” refers to an observed NAUC 170-140% of positive control)
- Nauc @ 3 μM [2]: ++ (NAUC “++” refers to an observed NAUC 170-140% of positive control)

SMILES: CC(C)CN(C(=O)[C@H]1[C@H]2CC(F)(F)CN2[C@]2(C(=O)Nc3c(Cl)cc(Cl)cc32)[C@H]1C(=O)O)c1cc(Cl)cc(Cl)c1 [Example 151]
- Nauc @ 1 μM [1]: +++ (NAUC “+++” refers to an observed NAUC>170% of positive control)
- Nauc @ 3 μM [2]: +++ (NAUC “+++” refers to an observed NAUC>170% of positive control)
- Nauc @ 10 μM [3]: ++ (NAUC “++” refers to an observed NAUC 170-140% of positive control)

SMILES: Cc1cccc(CCNC(=O)C2C3CC(F)(F)CN3C3(C(=O)Nc4c(Cl)cc(Cl)cc43)C2C(=O)O)c1 (stereo not shown) [Example 48]
- Nauc @ 3 μM [4]: ++ (NAUC “++” refers to an observed NAUC 170-140% of positive control)
- Nauc @ 10 μM [5]: +++ (NAUC “+++” refers to an observed NAUC>170% of positive control)

SMILES: Cc1ccc(CCNC(=O)C2C3CC(F)(F)CN3C3(C(=O)Nc4c(Cl)cc(Cl)cc43)C2C(=O)O)cc1 (stereo not shown) [Example 49]
- Nauc @ 3 μM [4]: ++ (NAUC “++” refers to an observed NAUC 170-140% of positive control)
- Nauc @ 10 μM [5]: +++ (NAUC “+++” refers to an observed NAUC>170% of positive control)

SMILES: CONC(=O)[C@H]1[C@@H](C(=O)Nc2cc(Cl)cc(Cl)c2)[C@H]2C[C@](C)(O)CN2[C@]12C(=O)Nc1c(Cl)cc(Cl)cc12 [Example 246, (1′R,2′S,6′S,7a′R)-5,7-dichloro-N1′-(3,5-dichlorophenyl)-6′-hydroxy-N2′-methoxy-6′-methyl-2-oxo-1′,2′,5′,6′,7′,7a′-hexahydrospiro[indoline-3,3′-pyrrolizine]-1′,2′-dicarboxamide]
- Nauc @ 1 μM [6]: + (NAUC “+” refers to an observed NAUC <140% of positive control)
- Nauc @ 3 μM [4]: + (NAUC “+” refers to an observed NAUC <140% of positive control)
- Nauc @ 10 μM [5]: +++ (NAUC “+++” refers to an observed NAUC>170% of positive control)

SMILES: O=C(O)[C@@H]1[C@H](C(=O)N(CC2CC2)c2cc(Cl)cc(Cl)c2)[C@H](C(F)(F)F)NC12C(=O)Nc1c(Cl)cc(Cl)cc12 (single isomer, unassigned) [Example 270a]
- Nauc @ 1 μM [1]: +++ (NAUC “+++” refers to an observed NAUC>170% of positive control)
- Nauc @ 3 μM [2]: +++ (NAUC “+++” refers to an observed NAUC>170% of positive control)
- Nauc @ 10 μM [3]: ++ (NAUC “++” refers to an observed NAUC 170-140% of positive control)

SMILES: O=C(O)[C@H]1[C@@H](C(=O)N(CC2CC2)c2cccc(C(F)(F)F)c2)[C@H]2CC(F)(F)CN2[C@]12C(=O)Nc1c(Cl)cc(Cl)cc12 [Example 163]
- Nauc @ 1 μM [1]: +++ (NAUC “+++” refers to an observed NAUC>170% of positive control)
- Nauc @ 3 μM [2]: +++ (NAUC “+++” refers to an observed NAUC>170% of positive control)
- Nauc @ 10 μM [3]: ++ (NAUC “++” refers to an observed NAUC 170-140% of positive control)

SMILES: CC(C)(C)c1cccc(CNC(=O)C2C3CC(F)(F)CN3C3(C(=O)Nc4c(Cl)cc(Cl)cc43)C2C(=O)O)c1 (stereo not shown) [Example 54]
- Nauc @ 3 μM [4]: + (NAUC “+” refers to an observed NAUC <140% of positive control)
- Nauc @ 10 μM [5]: +++ (NAUC “+++” refers to an observed NAUC>170% of positive control)

SMILES: O=C(Nc1cc(Cl)cc(Cl)c1)C1C(C(F)(F)c2ccc(C(F)(F)F)cc2)NC2(C(=O)Nc3c(Cl)cc(Cl)cc32)C1C(=O)O (stereo not shown) [Example 73.b]
- Nauc @ 10 μM [5]: + (NAUC “+” refers to an observed NAUC <140% of positive control)

SMILES: O=C(Nc1cc(Cl)cc(Cl)c1)C1C(C(F)(F)c2ccccc2Cl)NC2(C(=O)Nc3c(Cl)cc(Cl)cc32)C1C(=O)O (stereo not shown) [Example 63]
- Nauc @ 10 μM [5]: +++ (NAUC “+++” refers to an observed NAUC>170% of positive control)
